From patent US8962843B2, “1,3,4-oxadiazole and 1,3,4-thiadiazole beta-lactamase inhibitors” (priority 2012, dated 2015)
Structures can show the parent of a compound that is named as a salt.

How the values were obtained:
[1] = test system: bacterial strains that express the class D cephalosporinase OXA-15; test: Standard BLI potentiation MIC / synergy MIC assays, strains expressing OXA-15; assay type: cell-based, E. coli; settings: in combination with a β-lactam; comparator Avibactam (CCC)
Description: (§1) The experimental protocol was performed according to Clinical and Laboratory Standards Institute (CLSI) guidelines with modifications as described below (CLSI guidelines can be derived from the CLSI document M07-A9 published in January 2012: “Methods for Dilution Antimicrobial Susceptibility Tests for Bacteria That Grow Aerobically; Approved Standard-Ninth Edition”).
(§2) To prepare for MIC testing, frozen glycerol stocks of clinical isolates (Klebsiella pneumoniae, Eschericia coli, Enterobacter spp, Citrobacter spp, or Pseudomonas aeruginosa) were used to streak for isolated colonies on rich, non-selective, tryptic soy agar containing 5% sheep's blood (TSAB). Frozen glycerol stocks of laboratory engineered, isogenic E. coli strains, which contain cloned β-lactamase expressing plasmids were used to streak for isolated colonies on rich, selective LB agar supplemented with 25 μg/mL tetracycline to maintain the plasmid. All strains were incubated at 37° C. for 18-24 hrs.
(§3) On the day of testing, primary cultures were started by scraping off 5-10 colonies from the TSAB plates containing clinical strains or the tetracycline supplemented LB plates containing engineered strains. The clinical strain material was suspended in ˜5 mL of cation adjusted Mueller Hinton Broth (CAMHB) in 14 mL culture tubes. The engineered strain material was suspended in CAMHB (supplemented with 25 μg/mL tetracycline) in 14 mL culture tubes. All strains were incubated at 37° C. with aeration (200 rpm) for ˜2 hrs until the optical density at 600 nm (OD600) was >0.1.
(§4) The two compound components of the assay were each diluted in CAMHB and added to the 96-well broth microdilution assay plates. 50 μL of the β-lactam was added to each well of the assay plate in 2-fold dilutions with final concentrations ranging from 128 to 0.13 μg/mL. 25 μL of the BLI compound was added to all wells in the broth microdilution plates at a final concentration of 4 μg/mL. Inoculum cultures were prepared by standardizing the primary cultures to OD600=0.1 and then adding 20 μL of the adjusted primary culture per 1 mL CAMHB for clinical strains or CAMHB (supplemented with tetracycline at 100 μg/mL) for engineered strains, so that the final inoculum density was ˜10^5 colony forming units per milliliter. Diluted inoculum cultures were used to inoculate 25 μl, per well in 96-well broth microdilution assay plates. The final volume of each well was 100 μL and contained a β-lactam at different concentrations, a BLlcompound at 4 μg/mL concentration, the bacterial culture at an OD600 of approximately 0.001 and when necessary tetracycline at 25 μg/mL.
(§5) Plates were incubated for 18-20 hours at 37° C. with aeration (200 rpm). Following incubation, growth was confirmed visually placing plates over a viewing apparatus (stand with a mirror underneath) and then OD600 was measured using a SpectraMax 340PC384 plate reader (Molecular Devices, Sunnyvale, Calif.). Growth was defined as turbidity that could be detected with the naked eye or achieving minimum OD600 of 0.1. MIC values were defined as the lowest concentration producing no visible turbidity.
(§6) The synergy MIC (sMIC) assay determines the concentration of the BLI required to potentiate the activity of a fixed concentration of a β-lactam antibiotic against β-lactamase producing bacterial strains. The experimental protocol was performed according to Clinical and Laboratory Standards Institute (CLSI) guidelines with modifications as described below (CLSI guidelines can be derived from the CLSI document M07-A9 published in January 2012: “Methods for Dilution Antimicrobial Susceptibility Tests for Bacteria That Grow Aerobically; Approved Standard-Ninth Edition”). […]

[2] = test system: bacterial strains that express KPC β-lactamases; test: Standard BLI potentiation MIC / synergy MIC assays, strains expressing KPC β-lactamases; assay type: cell-based; settings: in combination with a β-lactam; comparator Avibactam
Description: as §1, §2, §3, §4, §5, §6

| Compound | activity against bacterial strains that express the class D cephalosporinase OXA-15, compared with Avibactam [1] | activity and/or spectrum of activity against bacterial strains that express KPC β-lactamases, compared with Avibactam [2] |
| --- | --- | --- |
| CC(C)(N)Cc1nnc([C@@H]2CC[C@@H]3CN2C(=O)N3OS(=O)(=O)O)o1 [Compound 737, (2S,5R)-2-(5-(2-amino-2-methylpropyl)-1,3,4-oxadiazol-2-yl)-7-oxo-1,6-diazabicyclo[3.2.1]octan-6-yl hydrogen sulfate] | more active than Avibactam | more active than Avibactam for at least one, bacterial strain that expresses KPC β-lactamase and/or show a better spectrum of activity |
| O=C1N2C[C@@H](CC[C@H]2c2nnc(CCCNC3CCNCC3)o2)N1OS(=O)(=O)O [Compound 771, (2S,5R)-7-oxo-2-(5-(3-(piperidin-4-ylamino)propyl)-1,3,4-oxadiazol-2-yl)-1,6-diazabicyclo[3.2.1]octan-6-yl hydrogen sulfate] | more active than Avibactam | more active than Avibactam for at least one, bacterial strain that expresses KPC β-lactamase and/or show a better spectrum of activity |
| O=C1N2C[C@@H](CC[C@H]2c2nnc(CCCC3CNC3)o2)N1OS(=O)(=O)O [Compound 743, (2S,5R)-2-(5-(3-(azetidin-3-yl)propyl)-1,3,4-oxadiazol-2-yl)-7-oxo-1,6-diazabicyclo[3.2.1]octan-6-yl hydrogen sulfate] | more active than Avibactam | more active than Avibactam for at least one, bacterial strain that expresses KPC β-lactamase and/or show a better spectrum of activity |
| NC1CCN(Cc2nnc([C@@H]3CC[C@@H]4CN3C(=O)N4OS(=O)(=O)O)o2)CC1 [Compound 774, (2S,5R)-2-(5-((4-aminopiperidin-1-yl)methyl)-1,3,4-oxadiazol-2-yl)-7-oxo-1,6-diazabicyclo[3.2.1]octan-6-yl hydrogen sulfate] | more active than Avibactam | more active than Avibactam for at least one, bacterial strain that expresses KPC β-lactamase and/or show a better spectrum of activity |
| O=C1N2C[C@@H](CC[C@H]2c2nnc(C3CNC3)o2)N1OS(=O)(=O)O [Compound 708, (2S,5R)-2-(5-(azetidin-3-yl)-1,3,4-oxadiazol-2-yl)-7-oxo-1,6-diazabicyclo[3.2.1]octan-6-yl hydrogen sulfate] | more active than Avibactam | more active than Avibactam for at least one, bacterial strain that expresses KPC β-lactamase and/or show a better spectrum of activity |
| N=C(N)N1CC(Cc2nnc([C@@H]3CC[C@@H]4CN3C(=O)N4OS(=O)(=O)O)o2)C1 [Compound 741, (2S,5R)-2-(5-((1-carbamimidoylazetidin-3-yl)methyl)-1,3,4-oxadiazol-2-yl)-7-oxo-1,6-diazabicyclo[3.2.1]octan-6-yl hydrogen sulfate] | more active than Avibactam | more active than Avibactam for at least one, bacterial strain that expresses KPC β-lactamase and/or show a better spectrum of activity |
| NCCc1nnc([C@@H]2CC[C@@H]3CN2C(=O)N3OS(=O)(=O)O)o1 [Compound 703, (2S,5R)-2-(5-(2-aminoethyl)-1,3,4-oxadiazol-2-yl)-7-oxo-1,6-diazabicyclo[3.2.1]octan-6-yl hydrogen sulfate] | more active than Avibactam | more active than Avibactam for at least one, bacterial strain that expresses KPC β-lactamase and/or show a better spectrum of activity |
| N[C@H]1C[C@H](CCc2nnc([C@@H]3CC[C@@H]4CN3C(=O)N4OS(=O)(=O)O)o2)C1 [Compound 753, (2S,5R)-2-(5-(2-((1r,3R)-3-aminocyclobutyl)ethyl)-1,3,4-oxadiazol-2-yl)-7-oxo-1,6-diazabicyclo[3.2.1]octan-6-yl hydrogen sulfate] | more active than Avibactam | more active than Avibactam for at least one, bacterial strain that expresses KPC β-lactamase and/or show a better spectrum of activity |
| NC1CCN(CCc2nnc([C@@H]3CC[C@@H]4CN3C(=O)N4OS(=O)(=O)O)o2)CC1 [Compound 775, (2S,5R)-2-(5-(2-(4-aminopiperidin-1-ybethyl)-1,3,4-oxadiazol-2-yl)-7-oxo-1,6-diazabicyclo[3.2.1]octan-6-yl hydrogen sulfate] | – | more active than Avibactam for at least one, bacterial strain that expresses KPC β-lactamase and/or show a better spectrum of activity |
| O=C1N2C[C@@H](CC[C@H]2c2nnc([C@H]3CCNC3)o2)N1OS(=O)(=O)O [Compound 758, (2S,5R)-7-oxo-2-(5-((S)-pyrrolidin-3-yl)-1,3,4-oxadiazol-2-yl)-1,6-diazabicyclo[3.2.1]octan-6-yl hydrogen sulfate] | more active than Avibactam | more active than Avibactam for at least one, bacterial strain that expresses KPC β-lactamase and/or show a better spectrum of activity |
| N[C@H]1CC[C@@H](c2nnc([C@@H]3CC[C@@H]4CN3C(=O)N4OS(=O)(=O)O)o2)C1 [Compound 768, (2S,5R)-2-(5-((1R,3S)-3-aminocyclopentyl)-1,3,4-oxadiazol-2-yl)-7-oxo-1,6-diazabicyclo[3.2.1]octan-6-yl hydrogen sulfate] | more active than Avibactam | more active than Avibactam for at least one, bacterial strain that expresses KPC β-lactamase and/or show a better spectrum of activity |
| O=C1N2C[C@@H](CC[C@H]2c2nnc(CCC3CNC3)o2)N1OS(=O)(=O)O [Compound 742, (2S,5R)-2-(5-(2-(azetidin-3-ybethyl)-1,3,4-oxadiazol-2-yl)-7-oxo-1,6-diazabicyclo[3.2.1]octan-6-yl hydrogen sulfate] | more active than Avibactam | more active than Avibactam for at least one, bacterial strain that expresses KPC β-lactamase and/or show a better spectrum of activity |
| N[C@H]1CN[C@@H](c2nnc([C@@H]3CC[C@@H]4CN3C(=O)N4OS(=O)(=O)O)o2)C1 [Compound 761, (2S,5R)-2-(5-((2R,4R)-4-aminopyrrolidin-2-yl)-1,3,4-oxadiazol-2-yl)-7-oxo-1,6-diazabicyclo[3.2.1]octan-6-yl hydrogen sulfate] | more active than Avibactam | more active than Avibactam for at least one, bacterial strain that expresses KPC β-lactamase and/or show a better spectrum of activity |
| N=C(N)NCCc1nnc([C@@H]2CC[C@@H]3CN2C(=O)N3OS(=O)(=O)O)s1 [Compound 794, (2S,5R)-2-(5-(2-guanidinoethyl)-1,3,4-thiadiazol-2-yl)-7-oxo-1,6-diazabicyclo[3.2.1]octan-6-yl hydrogen sulfate] | more active than Avibactam | more active than Avibactam for at least one, bacterial strain that expresses KPC β-lactamase and/or show a better spectrum of activity |
